Where “and” joins values, the source holds several entries; their conditions need not be identical. Equal values may be shown once.
How the values were obtained:
[1] = target: T1, Endothelin receptor type B (Homo sapiens, UniProt P24530); assay: Inhibitory concentration against Endothelin B receptor expressed in CHO-K1 cells; type: cell-based
T1 sequence (P24530 whole entry): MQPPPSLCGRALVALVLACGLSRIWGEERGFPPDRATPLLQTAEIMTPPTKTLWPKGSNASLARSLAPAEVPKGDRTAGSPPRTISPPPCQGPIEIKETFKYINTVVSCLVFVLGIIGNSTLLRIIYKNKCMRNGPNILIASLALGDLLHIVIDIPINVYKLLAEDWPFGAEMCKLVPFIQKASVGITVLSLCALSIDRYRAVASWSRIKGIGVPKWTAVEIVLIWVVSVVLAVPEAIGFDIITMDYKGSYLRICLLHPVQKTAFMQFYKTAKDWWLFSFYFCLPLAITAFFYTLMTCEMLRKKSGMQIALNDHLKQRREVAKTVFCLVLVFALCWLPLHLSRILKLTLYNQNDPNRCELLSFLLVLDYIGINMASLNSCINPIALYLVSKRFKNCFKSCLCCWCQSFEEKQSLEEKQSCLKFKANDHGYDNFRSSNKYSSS

[2] = target: T2, Endothelin-1 receptor (Homo sapiens, UniProt P25101); assay: Inhibitory concentration to the endothelin A receptor expressed in LtK cells; type: cell-based
T2 sequence (P25101 whole entry): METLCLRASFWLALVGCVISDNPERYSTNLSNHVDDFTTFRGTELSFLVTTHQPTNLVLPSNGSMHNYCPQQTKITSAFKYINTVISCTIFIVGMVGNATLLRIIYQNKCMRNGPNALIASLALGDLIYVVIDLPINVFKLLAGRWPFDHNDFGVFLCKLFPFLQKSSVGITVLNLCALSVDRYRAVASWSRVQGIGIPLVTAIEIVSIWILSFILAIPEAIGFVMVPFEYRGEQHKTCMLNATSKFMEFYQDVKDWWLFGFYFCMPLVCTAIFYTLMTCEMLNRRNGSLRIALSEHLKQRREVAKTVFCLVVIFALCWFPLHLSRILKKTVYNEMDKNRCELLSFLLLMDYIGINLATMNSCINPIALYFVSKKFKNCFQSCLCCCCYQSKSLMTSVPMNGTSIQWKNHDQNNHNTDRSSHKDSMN

[3] = species: Oryctolagus cuniculus; assay: Ability to inhibit the release of arachidonic acid in rabbit renal artery vascular smooth muscle cells (ETA) upon stimulation with ET-1; type: functional
[4] = target: T3, Endothelin receptor type B (Rattus norvegicus, UniProt P21451); assay: Compound was evaluated for binding affinity against rat Endothelin B receptor; inactive
T3 sequence (P21451 whole entry): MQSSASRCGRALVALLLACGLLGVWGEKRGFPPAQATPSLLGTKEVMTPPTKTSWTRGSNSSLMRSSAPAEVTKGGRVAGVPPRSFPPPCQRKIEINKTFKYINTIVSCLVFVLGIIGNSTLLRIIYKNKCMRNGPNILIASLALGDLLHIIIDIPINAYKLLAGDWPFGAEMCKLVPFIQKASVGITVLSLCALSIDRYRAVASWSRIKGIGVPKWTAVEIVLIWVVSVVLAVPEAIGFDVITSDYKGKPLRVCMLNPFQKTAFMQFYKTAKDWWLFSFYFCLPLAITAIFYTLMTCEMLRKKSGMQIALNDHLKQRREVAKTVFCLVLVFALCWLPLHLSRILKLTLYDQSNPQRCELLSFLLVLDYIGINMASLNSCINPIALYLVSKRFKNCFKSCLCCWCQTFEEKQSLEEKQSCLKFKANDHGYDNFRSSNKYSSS

[5] = target: T1, Endothelin receptor type B; assay: Compound was evaluated for binding affinity against human Endothelin B receptor
[6] = target: Endothelin-1 receptor (Oryctolagus cuniculus); assay: Compound was evaluated for binding affinity against rabbit Endothelin A receptor
[7] = species: Oryctolagus cuniculus; assay: Inhibition of arachidonic acid release (AAR-B) in rabbit renal artery vascular smooth muscle cells (ETA) upon stimulation with ET-1; type: functional

SMILES | IC50 [1] | IC50 [2] | further results
O=C(O)c1c(-c2ccc3c(c2)OCO3)c2cc(Cl)ccc2n1-c1ccccc1 | > 25000 nM | 10000 nM | 
O=C(O)c1c(-c2ccc3c(c2)OCO3)c2ccccc2n1-c1ccc2c(c1)OCO2 | 22000 nM | 4100 nM | 
COc1ccc2c(c1)c(-c1ccc3c(c1)OCO3)c(C(=O)O)n2-c1ccc2c(c1)OCO2 | 15000 nM | 260 nM | 
CC(C)Oc1c(C(=O)O)sc2ccc(OCc3ccccc3)cc12 |  |  | IC50 [4]: Not Active; IC50 [5]: > 100000 nM; IC50 [6]: 6000 nM
COc1ccc(-c2c(C(=O)O)n(-c3ccc4c(c3)OCO4)c3ccc(OC)cc23)cc1 | > 25000 nM | 1100 nM | 
COc1ccc(-c2c(C(=O)O)n(-c3ccc4c(c3)OCO4)c3ccc(OCc4ccccc4)cc23)cc1 | 21000 nM | 2400 nM | 
COc1cccc(-c2c(C(=O)O)n(-c3ccc4c(c3)OCO4)c3ccc(OC)cc23)c1 | > 25000 nM | 5500 nM | 
COc1ccc2c(c1)c(-c1ccc(OC)c(OC)c1)c(C(=O)O)n2-c1ccc2c(c1)OCO2 | > 25000 nM | 1500 nM | 
COc1ccc(-c2c(C(=O)O)n(Cc3ccc4c(c3)OCO4)c3cc(OC)c(OC)cc23)cc1OC | 850 nM | 60 nM | 
COc1cc2c(-c3ccc4c(c3)OCO4)c(C(=O)O)n(-c3ccc4c(c3)OCO4)c2cc1OC | 7000 nM | 80 nM | 
COc1ccc2c(-c3ccc4c(c3)OCO4)c(C(=O)O)n(-c3ccccc3)c2c1 | > 25000 nM | 7400 nM | 
O=C(O)c1c(-c2ccc3c(c2)OCO3)c2ccccc2n1Cc1ccccc1 | 14500 nM | 11000 nM | 
COc1ccc(-n2c(C(=O)O)c(-c3ccc4c(c3)OCO4)c3cc(OC)ccc32)cc1 | > 25000 nM | 3500 nM | 
COc1ccc2c(c1)c(-c1ccc3c(c1)OCO3)c(C(=O)O)n2-c1ccccc1 | > 25000 nM | 12000 nM | 
COc1ccc(-n2c(C(=O)O)c(-c3ccc4c(c3)OCO4)c3ccccc32)cc1 | > 25000 nM | 2300 nM | 

Second part, led by results:

IC50 [1] | IC50 [2] | SMILES | further results
3300 nM | 1500 nM | O=C(O)c1c(-c2ccc3c(c2)OCO3)c2ccccc2n1Cc1ccc2c(c1)OCO2 | 
2500 nM | 800 nM | O=C(O)c1c(-c2ccc3c(c2)OCO3)c2cc(OCc3ccccc3)ccc2n1Cc1ccc2c(c1)OCO2 | 
14000 nM | 1300 nM | O=C(O)c1c(-c2ccc3c(c2)OCO3)c2cc(OCc3ccccc3)ccc2n1-c1ccc2c(c1)OCO2 | 
4400 nM | 2700 nM | COc1ccc(Cn2c(C(=O)O)c(-c3ccc4c(c3)OCO4)c3cc(OCc4ccccc4)ccc32)cc1 | 
5600 nM | 47 nM | CCCOc1ccc2c(-c3ccc4c(c3)OCO4)c(C(=O)O)n(Cc3ccc4c(c3)OCO4)c2c1 | IC50 [3]: 480 nM
 | 60 nM | COc1cc2c(-c3ccc4c(c3)OCO4)c(C(=O)O)n(Cc3ccc4c(c3)OCO4)c2cc1OC | 
670 nM | 240 nM | O=C(O)c1c(-c2ccc3c(c2)OCO3)c2cc3c(cc2n1Cc1ccc2c(c1)OCO2)OCO3 | 
12000 nM | 43 nM | CCCOc1ccc2c(c1)c(-c1ccc3c(c1)OCO3)c(C(=O)O)n2-c1ccc2c(c1)OCO2 | 
1100 nM and 850 nM | 130 nM and 80 nM | CCCOc1ccc2c(c1)c(-c1ccc3c(c1)OCO3)c(C(=O)O)n2Cc1ccc2c(c1)OCO2 | 
2400 nM | 350 nM | COc1ccc2c(c1)c(-c1ccc3c(c1)OCO3)c(C(=O)O)n2Cc1ccc2c(c1)OCO2 | 
50 nM | 30 nM | COc1cc2c(-c3ccc4c(c3)OCO4)c(C(=O)O)n(Cc3ccc4c(c3)OCO4)c2cc1OCc1ccccc1 | IC50 [7]: 230 nM
